Laboratory results taken from patent publication US20220226357A1, “METHODS FOR TREATING NEURODEGENERATIVE DISORDERS” (THOMAS JEFFERSON UNIVERSITY, priority 2019, published 2022).
Entries after “also recorded” stand apart in the source; their conditions may differ.

Experiments:
[1] = system: AAV-A53T α-synuclein rat model; test: Beclin-1 protein expression in the SN; format: in vivo; conditions: 2 wks after AAV-A53T vector injection; N=8/grp
Source text: The pathological phenotype of various storage disorders comprises increased α-Syn accumulation and aggregation and this increased α-Syn accumulation and aggregation has been linked to lysosomal dyfunction. Also, DA neuron degeneration induced by excess α-Syn in AAV-A53T rats is linked to a progressive decline in autophagic activity and in markers of lysosome function.

[2] = system: AAV-A53T α-synuclein rat model; test: Insoluble pSer129 α-Syn immunofluorescence in SN after proteinase K; format: in vivo; conditions: GM1 30 mg/kg/day i.p. for 2 wks, starting 24 hrs after AAV-A53T
Source text: However, GM1 administration may affect α-Syn phosphorylation and aggregation in vivo. Some studies have reported that in vitro, GM1 and α-Syn interact, resulting in an absence of fibril formation and an increase in helical folding propensity, resulting in GM1-mediated protection against aggregation. […] It was proposed herein that a mechanism that underlies the ability of GM1 to reduce α-Syn-related neurotoxicity is that GM1 administration reduces α-Syn phosphorylation and thus aggregation, and toxicity, in vivo. […] Beginning 24 hours after AAV administration, some animals received daily i.p. injections of saline and others received daily i.p. injections of GM1 (30 mg/kg). Animals were euthanized 2 weeks following initiation of saline or GM1 administration. Brains were subsequently sectioned and SN sections were treated with proteinase K and then processed for pSer129 α-Syn immunofluorescence.

GM1 ganglioside was tested, and the “SN Beclin-1 protein expression, GM1 vs saline” value [1] was “reversed increased SN Beclin-1 levels; also recorded: significantly increased in saline-treated vs. GM1-treated animals” and the “insoluble pSer129 α-Syn-positive cells and pSer129 α-Syn per cell in the SN, GM1 vs saline” value [2] was “significantly fewer pSer129 α-Syn-positive cells and less pSer129 α-Syn per cell; also recorded: fewer SN neurons expressing insoluble pSer129 and decreased pSer129 expression per neuron”.
